Assay results as given in PubChem BioAssay AID248 (DTP/NCI, 2004).
Toxic doses and inconclusive results are not listed. Rule as the data show it: active = T/C of 150% or more; inactive = T/C below 125%. Square brackets hold non-standard residues; d marks the D form. Peptide text beside a SMILES is read from it. ξ: configuration not given here. Ac5c = NC1(C(=O)O)CCCC1; ξS = NC(CO)C(=O)O

Tested on: L1210 leukemia ip in BDF1 mice, survival T/C
Assay: NCI In Vivo Anticancer Drug Screen. Data for tumor model L1210 Leukemia (intraperitoneal) in B6D2F1 (BDF1) mice
Details: endpoint: mean survival time, higher = longer survival
Method in brief: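 In this screen, tumor-bearing mice given compound are compared to those given vehicle, and their survival values are reported as a treated-to-control quotient.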

[1] = dose: 100.0 mg/kg/injection, schedule: Q01DX009 (ip), vehicle: saline with Tween-80
[2] = dose: 100.0 mg/kg/injection, schedule: Q04DX003 (ip), vehicle: saline
[3] = dose: 200.0 mg/kg/injection, schedule: Q01DX009 (ip), vehicle: saline with Tween-80
[4] = dose: 200.0 mg/kg/injection, schedule: Q04DX003 (ip), vehicle: saline
[5] = dose: 400.0 mg/kg/injection, schedule: Q04DX003 (ip), vehicle: saline
[6] = dose: 100.0 mg/kg/injection, schedule: Q01DX009 (ip), vehicle: Klucel (hydroxypropylcellulose) (HPC)
[7] = dose: 200.0 mg/kg/injection, schedule: Q01DX009 (ip), vehicle: Klucel (hydroxypropylcellulose) (HPC)
[8] = dose: 400.0 mg/kg/injection, schedule: Q01DX009 (ip), vehicle: Klucel (hydroxypropylcellulose) (HPC)
[9] = dose: 100.0 mg/kg/injection, schedule: Q01DX009 (ip), vehicle: saline
[10] = dose: 200.0 mg/kg/injection, schedule: Q01DX009 (ip), vehicle: saline
[11] = dose: 400.0 mg/kg/injection, schedule: Q01DX009 (ip), vehicle: saline
[12] = dose: 100.0 mg/kg/injection, schedule: Q01DX001 (ip), vehicle: saline
[13] = dose: 200.0 mg/kg/injection, schedule: Q01DX001 (ip), vehicle: saline
[14] = dose: 400.0 mg/kg/injection, schedule: Q01DX001 (ip), vehicle: saline
[15] = dose: 50.0 mg/kg/injection, schedule: Q01DX009 (ip), vehicle: saline

Measured: T/C

NC1=NC(=O)CS1
inactive: dose: 100.0 mg/kg/injection, schedule: Q01DX001 (ip), vehicle: saline with Tween-80 92 % of control | [1] 105 % of control | [2] 86 % of control | dose: 200.0 mg/kg/injection, schedule: Q01DX001 (ip), vehicle: saline with Tween-80 103 % of control | [3] 107 % of control | [4] 93 % of control | dose: 400.0 mg/kg/injection, schedule: Q01DX001 (ip), vehicle: saline with Tween-80 95 % of control | dose: 400.0 mg/kg/injection, schedule: Q01DX009 (ip), vehicle: saline with Tween-80 105 % of control | [5] 86 % of control

NC(=O)NC(=O)/C=C\C(=O)O
inactive: dose: 50.0 mg/kg/injection, schedule: Q01DX009 (ip), vehicle: Klucel (hydroxypropylcellulose) (HPC) 93 % of control | [6] 98 % of control | [7] 91 % of control

COc1ccc(CCNC(=S)NC(=O)c2ccccc2)cc1OC
inactive: dose: 100.0 mg/kg/injection, schedule: Q01DX009 (sc), vehicle: olive oil, sesame oil, peanut oil 98 % of control | dose: 100.0 mg/kg/injection, schedule: Q04DX003 (sc), vehicle: olive oil, sesame oil, peanut oil 100 % of control | dose: 200.0 mg/kg/injection, schedule: Q01DX009 (sc), vehicle: olive oil, sesame oil, peanut oil 104 % of control | dose: 200.0 mg/kg/injection, schedule: Q04DX003 (sc), vehicle: olive oil, sesame oil, peanut oil 98 % of control | dose: 400.0 mg/kg/injection, schedule: Q01DX009 (sc), vehicle: olive oil, sesame oil, peanut oil 98 % of control | dose: 400.0 mg/kg/injection, schedule: Q04DX003 (sc), vehicle: olive oil, sesame oil, peanut oil 103 % of control

CC(=O)OC1C=CN(C(C)=O)C(SC23CC4CC(CC(C4)C2)C3)C1O (stereo not given)
inactive: [6] 97 % of control | [7] 97 % of control | [8] 95 % of control

O=C(NOC(=O)c1ccco1)c1ccccc1
inactive: dose: 100.0 mg/kg/injection, schedule: Q04DX003 (ip), vehicle: Klucel (hydroxypropylcellulose) (HPC) 97 % of control | dose: 200.0 mg/kg/injection, schedule: Q04DX003 (ip), vehicle: Klucel (hydroxypropylcellulose) (HPC) 113 % of control | dose: 400.0 mg/kg/injection, schedule: Q04DX003 (ip), vehicle: Klucel (hydroxypropylcellulose) (HPC) 104 % of control

CNC(=S)n1cncn1
inactive: [9] 91 % of control | [10] 108 % of control | [11] 92 % of control

Oc1c(Cl)cc(Cl)cc1/C=C1\C=Nc2ccccc21
inactive: dose: 100.0 mg/kg/injection, schedule: Q04DX002 (ip), vehicle: saline 97 % of control | dose: 200.0 mg/kg/injection, schedule: Q04DX002 (ip), vehicle: saline 94 % of control | dose: 400.0 mg/kg/injection, schedule: Q04DX002 (ip), vehicle: saline 102 % of control

c1ccc(N2CC2)cc1
inactive: dose: 100.0 mg/kg/injection, schedule: Q01DX001 (ip), vehicle: Klucel (hydroxypropylcellulose) (HPC) 105 % of control | dose: 200.0 mg/kg/injection, schedule: Q01DX001 (ip), vehicle: Klucel (hydroxypropylcellulose) (HPC) 100 % of control | dose: 400.0 mg/kg/injection, schedule: Q01DX001 (ip), vehicle: Klucel (hydroxypropylcellulose) (HPC) 96 % of control

Cc1ccccc1/C(=C/c1ccc([N+](=O)[O-])cc1)C(=O)O
inactive: [6] 95 % of control | [7] 108 % of control | [8] 104 % of control

O=C(COc1ccc([N+](=O)[O-])cc1)Nc1ccc(S(=O)(=O)F)cc1
inactive: [12] 103 % of control | [13] 107 % of control | [14] 103 % of control

CC(=O)N(N=O)c1ccc(C)cc1
inactive: dose: 5.0 mg/kg/injection, schedule: Q01DX001 (ip), vehicle: saline 101 % of control | dose: 10.0 mg/kg/injection, schedule: Q01DX001 (ip), vehicle: saline 92 % of control | dose: 20.0 mg/kg/injection, schedule: Q01DX001 (ip), vehicle: saline 92 % of control | dose: 40.0 mg/kg/injection, schedule: Q01DX001 (ip), vehicle: saline 106 % of control

NC(CO)C(=O)NC1(C(=O)O)CCCC1 (stereo not given) (H-[ξS]-[Ac5c]-OH)
inactive: [12] 100 % of control | [13] 107 % of control | [14] 107 % of control

CCNC(=O)Nc1cccc(NC(=O)C(=O)O)c1 (tested in a mixture with another compound)
inactive: dose: 100.0 mg/kg/injection, schedule: Q01DX001 (ip), vehicle: gum acacia 87 % of control | dose: 200.0 mg/kg/injection, schedule: Q01DX001 (ip), vehicle: gum acacia 97 % of control | dose: 400.0 mg/kg/injection, schedule: Q01DX001 (ip), vehicle: gum acacia 96 % of control

C[n+]1ccn(CC(=O)c2ccccc2)c1
inactive: dose: 25.0 mg/kg/injection, schedule: Q01DX009 (ip), vehicle: saline 98 % of control | [15] 112 % of control | [9] 93 % of control

CS(=O)(=O)N(CC(=O)O)Cc1ccccc1
inactive: [15] 101 % of control | dose: 50.0 mg/kg/injection, schedule: Q01DX009 (ip), vehicle: sodium bicarbonate 116 % of control | [9] 101 % of control | dose: 100.0 mg/kg/injection, schedule: Q01DX009 (ip), vehicle: sodium bicarbonate 106 % of control | dose: 100.0 mg/kg/injection, schedule: Q04DX003 (ip), vehicle: sodium bicarbonate 124 % of control | [10] 95 % of control | dose: 200.0 mg/kg/injection, schedule: Q01DX009 (ip), vehicle: sodium bicarbonate 101 % of control | dose: 200.0 mg/kg/injection, schedule: Q04DX003 (ip), vehicle: sodium bicarbonate 91 % of control | [11] 97 % of control | dose: 400.0 mg/kg/injection, schedule: Q01DX009 (ip), vehicle: sodium bicarbonate 104 % of control | dose: 400.0 mg/kg/injection, schedule: Q04DX003 (ip), vehicle: sodium bicarbonate 91 % of control

COC(=O)c1c[nH]c2ccc(Br)cc12
inactive: [2] 108 % of control | [4] 92 % of control | [5] 89 % of control

O=C(S)c1ccccc1.[Pb]
inactive: dose: 100.0 mg/kg/injection, schedule: Q04DX002 (ip), vehicle: saline with Tween-80 87 % of control | dose: 200.0 mg/kg/injection, schedule: Q04DX002 (ip), vehicle: saline with Tween-80 108 % of control

O=C(O)C1(Cl)CC2C=CC1C2 (stereo not given)
inactive: dose: 50.0 mg/kg/injection, schedule: Q01DX009 (ip), vehicle: gum acacia 99 % of control | dose: 50.0 mg/kg/injection, schedule: Q01DX009 (ip), vehicle: saline with Tween-80 93 % of control | dose: 100.0 mg/kg/injection, schedule: Q01DX009 (ip), vehicle: gum acacia 89 % of control | [1] 96 % of control | dose: 100.0 mg/kg/injection, schedule: Q04DX003 (ip), vehicle: gum acacia 101 % of control | dose: 100.0 mg/kg/injection, schedule: Q04DX003 (ip), vehicle: saline with Tween-80 93 % of control | dose: 200.0 mg/kg/injection, schedule: Q01DX009 (ip), vehicle: gum acacia 92 % of control | [3] 94 % of control | dose: 200.0 mg/kg/injection, schedule: Q04DX003 (ip), vehicle: gum acacia 95 % of control | dose: 200.0 mg/kg/injection, schedule: Q04DX003 (ip), vehicle: saline with Tween-80 91 % of control

CC1CN=C(N)NC1=O (stereo not given)
inactive: dose: 100.0 mg/kg/injection, schedule: Q01DX Z (ip), vehicle: saline 104 % of control | dose: 200.0 mg/kg/injection, schedule: Q01DX Z (ip), vehicle: saline 119 % of control
